Laboratory results from patent publication US10434092B2, “Dosage regimen for an alpha-isoform selective phosphatidylinositol 3-kinase inhibitor” (Novartis AG, priority 2013, dated 2019).
Values joined by “and” are separate entries in the source; they are usually repeats but may differ in a detail not shown here. Equal values may be shown once.

Legend:
Rat1-myr P110a tumors = experiment: PK/PD/efficacy relationship (time over in vivo IC80 versus anti-tumor efficacy); set-up: species or system mice and rats
Excerpt: Phoenix WinNonlin 6.3 (Pharsight) was used to simulate the mean plasma concentration time profiles after multiple dosing using the non-compartmental nonparametric superposition approach of data generated either from a mouse or rat efficacy study. The predictions are based upon an accumulation ratio computed from the terminal slope (Lambda Z), allowing predictions from simple or complicated dosing schedules.
FIG. 6 provides the relationship between exposure (as measured by time over the in vivo IC80) and anti-tumor efficacy. Further, a nearly linear relationship is identified between the anti-tumor efficacy magnitude and duration of drug exposure (as measured by time over the in vivo IC80) over the IC80 (R^2=0.89; FIG. 7).

[1] = Pharmacokinetics after oral administration, nude rats; format: in vivo; conditions: nude rats, 12.5, 25, 40 and 80 mg/kg qd
Method: (§1) Blood samples were collected at different time points post the last treatment (1 hour, 2 hour, 4 hour, 8 hour, 12 hour, 16 hour and 24 hour, n=2-3 per time point) into tubes coated with K-EDTA. Blood samples were centrifuged and collected plasma immediately frozen at −80° C. until final processing. Tumors were collected at sacrifice at 7 time points (1 hour, 2 hour, 4 hour, 8 hour, 12 hour, 16 hour and 24 hour, n=2-3 per time point), snap frozen and kept at −80° C. until final processing.
(§2) Following addition of 25 μL of internal standard (1 μg/mL) to analytical aliquots (25 μL) of plasma or (20 mg) tumor powder, the proteins were precipitated by the addition of 200 μL acetonitrile. The supernatant were transferred in a fresh vial. After evaporation to dryness the samples were re-dissolved in 60 μL acetonitrile/water (1/1 v/v). An aliquot (5 μL) of this solution was separated on a ACQUITY UPLC BEH C18 column (Waters™ 1.7 μm particle size, 2.1×50 mm) with a mobile phase consisting of a mixture of 0.1% formic acid in water (solvent A) and 0.1% formic acid in acetonitrile (solvent B). Gradient programming was used with a flow rate of 600 μL/min. After equilibration with 95% solvent A, 5 μL of sample was injected. Following a latency period of 0.25 min, the sample was eluted with a linear gradient of 5-100% solvent B over a period of 0.65 minutes followed by a 0.35 minutes hold. […]

S473P-Akt [2] = experiment: In vitro cellular S473P-Akt inhibition; format: cell-based
Rat1-myr-p110α tumor [3] = experiment: Antitumor activity in the Rat1-myr-p110α tumor model, nude rats; format: in vivo; conditions: nude rat, oral
Method: (§3) Experiments were performed in female Hsd: Athymic Nude-nu CPB mice (Harlan Winkelmann, Germany). Animals were between 12 and 14 weeks of age at treatment start and housed under Optimized Hygienic Conditions (OHC) in Makrolon type III cages (max. 5 animals per cage) with free access to food and water. In addition, experiments were also performed in female nude Rowett rats Hsd: RH-Fox1mu (Harlan (The Netherlands). Animals were 6-9 weeks of age at time of application of the compound. Animals were housed under Optimized Hygienic Conditions in Makrolon type III cages (max. 2 animals per cage) with free access to food and water. They were allowed to adapt for at least 6 days before the experiment was started.
(§4) Rat1-Myr-p110α cells were grown in Dulbecco's Modified Eagle Medium (DMEM) culture medium containing 4.5 g/l glucose supplemented with 10% heat-inactivated fetal calf serum (FCS), 2 mM L-glutamine, 1 mM sodium pyruvate and incubated at 37° C. in a 5% CO2 humidified atmosphere. Cells were harvested with trypsin-EDTA, re-suspended in culture medium (with additives) and counted with a Casy® system. Finally, cells are centrifuged, suspended in ice-cold Hanks' balanced salt solution (HBSS) at a concentration of 3×10^7 cells/ml. Cell culture reagents were purchased from BioConcept (Allschwil, Switzerland).
(§5) Rat1-Myr-p110α tumors were established by subcutaneous injection of […] in 100 μL HBSS (Sigma #H8264) into the right flank of nude mice or nude rats. For the efficacy experiments, treatments were initiated when the mean tumor volumes were approx. 300 mm^3 (14 to 15 days post tumor cells injection).
(§6) Fresh suspensions were prepared once every 4 days and stored at 4° C.
(§7) Tumor volumes were measured with calipers and determined according to the formula: length×diameter^2×[…]/6. In addition to presenting changes of tumor volumes over the course of treatments, antitumor activity is expressed as T/C % (mean change of tumor volume of treated animals/mean change of tumor volume of control animals)×100. Regressions (%) were calculated according to the formula ((mean tumor volume at end of treatment−mean tumor volume at start of treatment)/mean tumor volume at start of treatment)×100. Body weights and tumor volumes were recorded two to three times a week.

[4] = system: advanced solid malignancies carrying an alteration in the PIK3CA gene; conditions: patients treated at ≥270 mg/day, oral, continuous daily schedule; breast, colorectal, endometrial, cervical cancer (1 patient each); as of Feb. 15, 2013; cited from earlier work
Rat1-myr-p110α tumor [5] = experiment: Antitumor activity in the Rat1-myr-p110α tumor model, nude mice; format: in vivo; conditions: oral
Method: as §3, §4, §5, §6, §7

S473P-Akt [6] = experiment: In vivo S473P-Akt inhibition in Rat1-myr-p110α tumors (RPPA) versus tumor drug concentration; set-up: species or system nude mice and rats
Method: as §5, §1
After dissection, the tumors were snap-frozen in liquid nitrogen and stored at −80° C. Frozen tumors were pulverized using a Retsch ball mixer mill MM20 (Arlesheim, Switzerland) with metal cylinders that were pre-cooled to −80° C. in a freezer. Powder was scrapped from metal cylinders on dry ice and transferred into pre-cooled 1.5 mL Eppendorf tubes while avoiding melting.
as §2, with “hold. The column was prepared for the next sample by re-equilibrating over 0.25 minutes to the starting conditions.” for “hold.”
Each sample was vortexed and centrifuged for 10 minutes at 10,000 rpm. […] The protein concentrations were quantified using the Coomassie Plus Kit (#23236 Thermo Scientific, Rockford, Ill., USA) according to the protocol of the manufacturer. The diluted samples were transferred into a 96 well plate (#269620, NUNC) and the absorbance was measured at 595 nm using a SpectraMAX Plus plate reader from Molecular Devices. The Protein amount was calculated using the Softmax Pro 5.0 software (Molecular Devices, USA) and then normalized on 1 mg/mL using the corresponding lysis buffer. […]

ATR = ATR (Homo sapiens, UniProt Q13535); conditions: cited from earlier work
Sequence of ATR (Q13535 whole entry): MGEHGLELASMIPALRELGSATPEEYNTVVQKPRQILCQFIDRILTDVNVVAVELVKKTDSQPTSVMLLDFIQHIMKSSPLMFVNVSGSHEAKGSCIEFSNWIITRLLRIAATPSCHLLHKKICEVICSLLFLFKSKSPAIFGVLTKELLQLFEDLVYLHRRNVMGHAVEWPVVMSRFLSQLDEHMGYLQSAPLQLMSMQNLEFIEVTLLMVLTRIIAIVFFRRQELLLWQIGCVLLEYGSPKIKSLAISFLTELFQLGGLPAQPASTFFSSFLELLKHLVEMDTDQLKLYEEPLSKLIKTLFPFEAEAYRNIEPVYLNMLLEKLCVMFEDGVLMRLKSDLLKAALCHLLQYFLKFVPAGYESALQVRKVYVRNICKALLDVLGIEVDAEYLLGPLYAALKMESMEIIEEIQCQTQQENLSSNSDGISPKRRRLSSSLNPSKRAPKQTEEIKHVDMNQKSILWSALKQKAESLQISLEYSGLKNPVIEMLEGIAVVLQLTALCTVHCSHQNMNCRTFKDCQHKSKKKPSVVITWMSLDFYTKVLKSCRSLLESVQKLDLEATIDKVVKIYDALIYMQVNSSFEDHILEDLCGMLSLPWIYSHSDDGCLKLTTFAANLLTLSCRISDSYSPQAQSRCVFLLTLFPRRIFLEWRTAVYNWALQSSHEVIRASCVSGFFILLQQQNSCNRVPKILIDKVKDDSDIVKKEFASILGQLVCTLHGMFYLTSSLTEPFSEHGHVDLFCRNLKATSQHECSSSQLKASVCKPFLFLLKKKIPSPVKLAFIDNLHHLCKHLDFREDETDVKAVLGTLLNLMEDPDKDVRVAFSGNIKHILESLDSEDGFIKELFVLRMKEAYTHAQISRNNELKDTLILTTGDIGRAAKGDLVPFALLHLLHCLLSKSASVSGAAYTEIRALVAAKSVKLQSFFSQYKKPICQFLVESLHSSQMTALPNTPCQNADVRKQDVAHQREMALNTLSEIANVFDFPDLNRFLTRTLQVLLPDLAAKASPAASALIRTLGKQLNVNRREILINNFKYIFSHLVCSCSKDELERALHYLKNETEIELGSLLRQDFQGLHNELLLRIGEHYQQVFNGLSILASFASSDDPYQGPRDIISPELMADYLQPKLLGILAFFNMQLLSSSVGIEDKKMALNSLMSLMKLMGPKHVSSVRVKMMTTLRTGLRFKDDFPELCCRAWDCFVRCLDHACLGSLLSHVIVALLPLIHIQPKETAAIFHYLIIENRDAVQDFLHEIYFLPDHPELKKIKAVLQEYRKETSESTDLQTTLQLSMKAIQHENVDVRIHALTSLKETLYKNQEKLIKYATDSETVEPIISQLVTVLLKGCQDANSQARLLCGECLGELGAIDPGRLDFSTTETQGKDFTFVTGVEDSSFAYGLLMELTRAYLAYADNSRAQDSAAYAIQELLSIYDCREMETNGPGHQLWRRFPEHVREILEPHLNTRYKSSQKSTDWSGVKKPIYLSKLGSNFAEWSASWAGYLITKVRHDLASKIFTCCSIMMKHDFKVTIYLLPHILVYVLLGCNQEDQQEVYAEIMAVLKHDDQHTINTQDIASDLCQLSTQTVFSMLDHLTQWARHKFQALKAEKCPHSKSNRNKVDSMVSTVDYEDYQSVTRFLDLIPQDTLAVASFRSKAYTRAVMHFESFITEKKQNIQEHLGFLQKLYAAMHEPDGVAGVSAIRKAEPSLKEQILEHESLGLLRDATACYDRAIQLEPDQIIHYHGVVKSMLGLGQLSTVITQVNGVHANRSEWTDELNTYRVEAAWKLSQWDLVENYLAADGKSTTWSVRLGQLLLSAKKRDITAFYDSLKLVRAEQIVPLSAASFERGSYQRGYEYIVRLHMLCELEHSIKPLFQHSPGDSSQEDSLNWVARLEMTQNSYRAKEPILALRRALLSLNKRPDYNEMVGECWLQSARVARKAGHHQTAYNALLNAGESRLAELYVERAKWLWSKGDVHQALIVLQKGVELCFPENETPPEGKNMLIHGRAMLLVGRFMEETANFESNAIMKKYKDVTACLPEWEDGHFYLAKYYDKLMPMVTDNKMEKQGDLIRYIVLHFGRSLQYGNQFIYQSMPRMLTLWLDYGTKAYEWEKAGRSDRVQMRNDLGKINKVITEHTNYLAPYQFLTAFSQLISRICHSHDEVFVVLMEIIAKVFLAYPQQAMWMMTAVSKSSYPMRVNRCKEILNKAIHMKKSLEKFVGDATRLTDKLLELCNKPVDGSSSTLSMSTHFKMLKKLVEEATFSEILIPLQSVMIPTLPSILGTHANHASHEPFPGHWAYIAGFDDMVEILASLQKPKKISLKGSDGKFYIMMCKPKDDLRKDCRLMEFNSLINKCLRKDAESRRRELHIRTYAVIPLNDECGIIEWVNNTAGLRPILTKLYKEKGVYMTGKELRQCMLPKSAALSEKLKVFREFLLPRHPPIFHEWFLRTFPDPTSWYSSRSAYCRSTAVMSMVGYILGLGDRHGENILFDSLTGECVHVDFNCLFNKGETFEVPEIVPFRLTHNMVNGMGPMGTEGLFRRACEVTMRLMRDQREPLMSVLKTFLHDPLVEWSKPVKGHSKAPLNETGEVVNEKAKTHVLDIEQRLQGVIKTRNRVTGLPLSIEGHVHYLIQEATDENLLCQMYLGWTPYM
Sequence of ATR (Q8WXE1 whole entry partner): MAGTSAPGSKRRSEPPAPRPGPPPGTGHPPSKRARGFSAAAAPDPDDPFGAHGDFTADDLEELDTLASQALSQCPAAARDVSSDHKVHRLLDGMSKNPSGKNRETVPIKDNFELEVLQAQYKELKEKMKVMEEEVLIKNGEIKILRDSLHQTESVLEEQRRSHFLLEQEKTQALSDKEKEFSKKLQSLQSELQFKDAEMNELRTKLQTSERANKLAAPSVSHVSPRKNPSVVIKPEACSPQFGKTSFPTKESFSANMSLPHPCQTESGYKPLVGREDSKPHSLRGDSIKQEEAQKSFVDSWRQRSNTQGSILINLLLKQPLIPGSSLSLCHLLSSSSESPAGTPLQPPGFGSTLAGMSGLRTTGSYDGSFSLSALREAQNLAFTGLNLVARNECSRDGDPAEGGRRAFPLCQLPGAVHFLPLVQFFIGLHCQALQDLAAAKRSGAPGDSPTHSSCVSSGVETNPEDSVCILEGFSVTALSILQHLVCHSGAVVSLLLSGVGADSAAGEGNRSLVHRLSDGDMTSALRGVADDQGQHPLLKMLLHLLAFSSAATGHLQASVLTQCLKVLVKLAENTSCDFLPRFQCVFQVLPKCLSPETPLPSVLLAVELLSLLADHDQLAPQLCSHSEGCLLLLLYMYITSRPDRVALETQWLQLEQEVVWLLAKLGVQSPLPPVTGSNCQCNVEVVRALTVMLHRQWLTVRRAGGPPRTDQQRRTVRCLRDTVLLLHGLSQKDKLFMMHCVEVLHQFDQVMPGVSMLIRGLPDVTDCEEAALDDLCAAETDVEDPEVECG

mTOR = mTOR (Homo sapiens, UniProt P42345); conditions: cited from earlier work
[7] = Pharmacokinetics after oral administration, nude mice; format: in vivo; conditions: nude mice, 12.5, 25 and 50 mg/kg qd
Method: as §1, §2

[8] = Modulation of glucose and insulin levels, nude rats; format: in vivo; conditions: versus plasma drug concentration
[9] = Modulation of glucose and insulin levels, nude mice; format: in vivo; conditions: versus plasma drug concentration
[10] = once or twice per day continuous daily schedule, oral; cited from earlier work
[11] = PK/PD/tolerability relationship (time above hyperglycemia threshold versus body weight loss); format: in vivo, nude mice and rats; conditions: mice and rats, threshold 20 μmol/L mice
Excerpt: From this relationship, it is understood that the compound exposure levels should be sustained for no more than 35% of the dosing interval above the hyperglycemia cut-off to maintain body weight loss below 5% in mice and rats.

Plasma protein binding = format: in vitro ADME; conditions: mouse, read-out: plasma protein binding (PPB) (converted)
Vps34 = Vps34 (Homo sapiens, UniProt Q8NEB9); conditions: cited from earlier work
Sequence of Vps34 (Q8NEB9 whole entry, species assumed): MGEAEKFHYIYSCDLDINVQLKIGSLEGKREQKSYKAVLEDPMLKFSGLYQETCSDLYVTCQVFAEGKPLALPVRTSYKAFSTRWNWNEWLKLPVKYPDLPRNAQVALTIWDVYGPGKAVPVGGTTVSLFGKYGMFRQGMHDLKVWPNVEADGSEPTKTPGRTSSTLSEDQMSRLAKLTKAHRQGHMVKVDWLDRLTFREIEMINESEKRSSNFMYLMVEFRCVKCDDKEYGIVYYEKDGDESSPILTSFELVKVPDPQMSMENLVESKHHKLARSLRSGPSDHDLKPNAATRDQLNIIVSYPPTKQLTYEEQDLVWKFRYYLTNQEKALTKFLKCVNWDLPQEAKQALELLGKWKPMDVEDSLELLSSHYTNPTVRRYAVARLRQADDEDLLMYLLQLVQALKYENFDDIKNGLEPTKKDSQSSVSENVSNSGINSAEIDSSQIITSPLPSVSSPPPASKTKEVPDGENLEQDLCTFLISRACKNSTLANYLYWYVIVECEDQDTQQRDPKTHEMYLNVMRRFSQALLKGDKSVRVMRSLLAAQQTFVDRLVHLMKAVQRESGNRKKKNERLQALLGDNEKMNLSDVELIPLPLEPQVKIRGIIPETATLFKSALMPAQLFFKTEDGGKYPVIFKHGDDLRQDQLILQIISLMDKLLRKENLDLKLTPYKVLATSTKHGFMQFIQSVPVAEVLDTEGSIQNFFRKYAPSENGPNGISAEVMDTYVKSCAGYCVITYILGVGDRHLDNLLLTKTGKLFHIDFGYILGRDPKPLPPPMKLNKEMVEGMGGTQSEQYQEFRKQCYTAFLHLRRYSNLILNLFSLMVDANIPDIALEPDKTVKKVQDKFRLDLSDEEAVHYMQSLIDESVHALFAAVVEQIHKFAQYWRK

Human plasma exposure = format: in vivo; conditions: po, human dose 300-350 mg/day p.o.
Method: The corresponding total dose for qd in continuous daily schedule p.o. dose would be 14 mg/kg.

DNA-PK = DNA-PK (Homo sapiens, UniProt P78527); conditions: cited from earlier work

SMILES: Cc1nc(NC(=O)N2CCC[C@H]2C(N)=O)sc1-c1ccnc(C(C)(C)C(F)(F)F)c1 [Compound A, (S)-Pyrrolidine-1,2-dicarboxylic acid 2-amide 1-({4-methyl-5-[2-(2,2,2-trifluoro-1,1-dimethyl-ethyl)-pyridin-4-yl]-thiazol-2-yl}-amide)]
- fraction of the dosing interval with 80% inhibition of Akt phosphorylation required to induce tumor stasis (Rat1-myr P110a tumors): at least 25 % of the dosing interval
- dose linearity of pharmacokinetics [1]: linear
- IC50 (S473P-Akt [2]): 74 nM
- IC80 (S473P-Akt [2]): 301 nM
- Efficacy T/C (observed) (Rat1-myr-p110α tumor [3]; 6.25 mg qd): 0.22
- Efficacy T/C (observed) (Rat1-myr-p110α tumor [3]; 12.5 mg qd): 0.05
- Efficacy Regression (observed) (Rat1-myr-p110α tumor [3]; 25 mg qd): −0.65
- Efficacy Regression (observed) (Rat1-myr-p110α tumor [3]; 50 mg qd): −0.80
- clinical response [4]: confirmed partial responses
- Efficacy T/C (observed) (Rat1-myr-p110α tumor [5]; 6.25 mg 2qd): 0.02
- Efficacy T/C (observed) (Rat1-myr-p110α tumor [5]; 6.25 mg qd): 0.19
- Efficacy Regression (observed) (Rat1-myr-p110α tumor [5]; 12.5 mg 2qd): −0.55
- Efficacy T/C (observed) (Rat1-myr-p110α tumor [5]; 12.5 mg qd): 0.09
- Efficacy Regression (observed) (Rat1-myr-p110α tumor [5]; 20 mg 2qd): −0.80
- Efficacy Regression (observed) (Rat1-myr-p110α tumor [5]; 25 mg qd): −0.53
- Efficacy Regression (observed) (Rat1-myr-p110α tumor [5]; 40 mg 2qd): −0.86
- Efficacy Regression (observed) (Rat1-myr-p110α tumor [5]; 50 mg qd): −0.65
- IC50 (S473P-Akt [6]; Mus musculus, read-out: in vivo IC50, tumor concentration giving 50% S473P-Akt inhibition): 600 nM
- IC80 (S473P-Akt [6]; Mus musculus, read-out: in vivo IC80 corrected for plasma protein binding): 352 nM
- IC80 (S473P-Akt [6]; Mus musculus, tumor concentration, versus controls, Rat1-myr-p110α tumors, read-out: in vivo IC80, tumor concentration giving 80% S473P-Akt inhibition): 4000 nM
- IC50 (S473P-Akt [6]; corrected for mouse PPB, read-out: in vivo IC50 corrected for plasma protein binding): 53 nM
- inhibitory activity against ATR (ATR): lacks inhibitory activity
- inhibitory activity against mTOR (mTOR): lacks inhibitory activity
- dose linearity of pharmacokinetics [7]: linear
- insulin plasma levels [8]: increased proportionally
- insulin plasma levels [9]: increased proportionally
- decreased appetite [10]: 34 % of patients
- diarrhea [10]: 35 % of patients
- hyperglycemia [10]: 49 % of patients
- nausea [10]: 43 % of patients
- rash and hypersensitivity [10]: 34 % of patients
- fraction of the dosing interval above the hyperglycemia cut-off that maintains body weight loss below 5% [11]: no more than 35 % of the dosing interval
- fraction unbound (Plasma protein binding): 0.088
- inhibitory activity against Vps34 (Vps34): lacks inhibitory activity
- AUC (Human plasma exposure): 35000 ng·h/mL and 80 µM·h
- Cmax (Human plasma exposure): 3500 ng/mL and 8 µM
- inhibitory activity against DNA-PK (DNA-PK): lacks inhibitory activity
